Here are results for 1 molecule from US6355435B1, “Methods for detecting and enumerating Campylobacter jejuni in environmental samples and for identifying antibiotic-resistant strains” (priority 1999, dated 2002).

For assay [1], the system named is Campylobacter jejuni strain cj49349. The assay can be described thus: Growth on BASB agar supplemented with ciprofloxacin. In kind it is cell-based. The conditions noted are these: ciprofloxacin at 16 μg per ml; wild-type strain cj49349.
Assay [2] has as its system ciprofloxacin-resistant Campylobacter jejuni mutants (C to T transition in codon 86 of gyrA). The assay can be described thus: Growth of selected mutants on BASB medium containing ciprofloxacin. In kind it is cell-based. The following applies: ciprofloxacin at 16 μg/ml; 12 Campylobacter mutants.
For assay [3], the system named is Campylobacter jejuni with high-level ciprofloxacin resistance. The conditions noted are these: gyrA codon 86 C to T transition; cited from earlier work.

With `O=C(O)c1cn(C2CC2)c2cc(N3CCNCC3)c(F)cc2c1=O` [ciprofloxacin], in assay [1], the “growth on BASB agar supplemented with ciprofloxacin” value is reported as “unable to grow”. In addition, the “growth on BASB medium containing ciprofloxacin” value in assay [2] is “able to grow”. Also, the MIC in assay [3] was not below 16 µg/mL.

A word on the MIC: it is the lowest concentration found to suppress growth.
